This note sets out measurements from ChEMBL document CHEMBL4706661, “Synthesis and vasorelaxant evaluation of novel 7-methoxyl-2,3-disubstituted-quinoxaline derivatives” (2021).

The subject of assay [1] is Thoracic aorta. Put plainly: Vasorelaxant activity in C57 mouse thoracic aortic rings assessed as reduction in high extracellular K+-induced contractions at 3 to 300 uM measured for 16 mins in absence of endothelium by myograph assay. To be noted: dose 3-300 µM. It is filed as functional, tissue-based.
In assay [2] the test system is Thoracic aorta. Put plainly: Vasorelaxant activity in C57 mouse thoracic aortic rings containing endothelium assessed as reduction in high extracellular K+-induced contractions measured for 16 mins by myograph assay. Type of assay: functional, tissue-based. To be noted: dose 3-300 µM.
Assay [3] concerns Thoracic aorta. Put plainly: Vasorelaxant activity in C57 mouse thoracic aortic rings containing endothelium assessed as reduction in phenylephrine-induced contractions at 3 to 300 uM measured for 16 mins by myograph assay. Type of assay: functional, tissue-based. The note with it: dose 3-300 µM.
Assay [4] has as its system Thoracic aorta. Put plainly: Vasorelaxant activity in C57 mouse thoracic aortic rings containing endothelium assessed as reduction in high extracellular K+-induced contractions at 3 to 300 uM pretreated with nitric oxide synthase inhibitor, L-NAME and measured for 16 mins by myograph method. Type of assay: functional, tissue-based. The note with it: dose 3-300 µM.
Assay [5] deals with Thoracic aorta. Put plainly: Vasorelaxant activity in C57 mouse thoracic aortic rings containing endothelium assessed as reduction in phenylephrine-induced contractions at 300 uM after 40 mins by myograph method. It is filed as functional.
Assay [6] relates to Thoracic aorta. Put plainly: Vasorelaxant activity in C57 mouse thoracic aortic rings containing endothelium assessed as reduction in phenylephrine-induced contractions at 3 to 300 uM pretreated with nitric oxide synthase inhibitor, L-NAME and measured for 16 mins by myograph method. It is filed as functional, tissue-based. To be noted: dose 3-300 µM.
In assay [7] the test system is Thoracic aorta. Description: Vasorelaxant activity in C57 mouse thoracic aortic rings assessed as reduction in phenylephrine-induced contractions at 3 to 300 uM measured for 16 mins in absence of endothelium by myograph method. It is filed as functional, tissue-based. To be noted: dose 3-300 µM.

Activity calls are given as the source filed them. The calls are words filed in the database; no cut-off is given here.

As a reminder, the inhibition is the percentage by which the read-out fell short of the control.

Regarding `COc1ccc2nc(Oc3ccc(-c4ccc(C#N)cc4)cc3)c(N3CCN(c4ccccc4)CC3)nc2c1`, the result with Thoracic aorta [1] and in the assay on Thoracic aorta [3] was Active. The Activity result in the assay on Thoracic aorta [2] was “Dose-dependent effect”.

For the molecule `COc1ccc2nc(N3CCCC3)c(N3CCOCC3)nc2c1`, the result in the assay on Thoracic aorta [3] was inactive.

Consider `COc1ccc2nc(Oc3ccc(-c4ccccc4)cc3)c(N3CCCC3)nc2c1`, for which the outcome in the assay on Thoracic aorta [3] was inactive.

For `COC(=O)C1CCN(c2nc3cc(OC)ccc3nc2N2CCCC2)CC1`, the outcome in the assay with Thoracic aorta [4], in the assay on Thoracic aorta [1], with Thoracic aorta [6] and in the assay on Thoracic aorta [7] was Active. Besides, the inhibition at 300 µM in the assay with Thoracic aorta [5] is 72.7%. For the same molecule, the Activity result with Thoracic aorta [2] and in the assay with Thoracic aorta [3] was “Dose-dependent effect” in each case.

For `COc1ccc2nc(Oc3ccc(-c4ccc(C#N)cc4)cc3)c(N3CCN(C)CC3)nc2c1`, the outcome in the assay on Thoracic aorta [1] and in the assay on Thoracic aorta [3] was Active. The Activity entry in the assay with Thoracic aorta [2] is “Dose-dependent effect”.

For the molecule `COc1ccc2nc(N3CCCC3)c(N3CCN(c4ccccc4)CC3)nc2c1`, the outcome in the assay with Thoracic aorta [3] was inactive.

On to `COc1ccc2nc(N3CCCC3)c(N3CCN(C)CC3)nc2c1`, for which the result with Thoracic aorta [4], with Thoracic aorta [1], in the assay with Thoracic aorta [6] and in the assay on Thoracic aorta [7] was Active. Further, the inhibition at 300 µM in the assay with Thoracic aorta [5] is 50%. Further, the Activity entry in the assay with Thoracic aorta [2] and with Thoracic aorta [3] was “Dose-dependent effect” in each case.

In the case of `COc1ccc2nc(NC#N)c(N3CCN(Cc4ccccc4)CC3)nc2c1`, the result in the assay with Thoracic aorta [3] was inactive.

Consider `COc1ccc2nc(N3CCCC3)c(N3CCN(Cc4ccccc4)CC3)nc2c1`, for which, in the assay with Thoracic aorta [3], the result was inactive.

As to `CCN1CCN(c2nc3cc(OC)ccc3nc2N2CCCC2)CC1`, the result in the assay with Thoracic aorta [4], in the assay on Thoracic aorta [1], in the assay with Thoracic aorta [6] and in the assay with Thoracic aorta [7] was Active. The inhibition at 300 µM in the assay on Thoracic aorta [5] is 50%. Besides, the Activity result with Thoracic aorta [2] and in the assay on Thoracic aorta [3] was “Dose-dependent effect” throughout.
